Earlier results, collected in patent publication US4123523A, “Analgesic and sedative polypeptides” (Imperial Chemical Industries Limited, priority 1976, dated 1978).

Tested on: cat
Conditions: injected directly into the third ventricle of the cat

For “β-endorphin: residues 61-91 of the naturally-occuring lipolytic polypeptide hormone lipotropin (YGGFMTSEKSQTPLVTLFKNAIIKNAYKKGE; Beta-endorphin; UniProt P01189 237-267, looked up)”, the analgesic properties is given as “possesses analgesic properties”.
